# Measured values taken from ChEMBL document CHEMBL3739380, “Discovery of benzothiazoles as antimycobacterial agents: Synthesis, structure-activity relationships and binding studies with Mycobacterium tuberculosis decaprenylphosphoryl-β-D-ribose 2'-oxidase” (Bioorg Med Chem, 2015).
# Experiments:
# [1] = Inhibition of Mycobacterium tuberculosis DprE1 using farnesyl-phosphoryl-beta-D-ribofuranose as substrate preincubated for 30 mins before substrate addition by peroxidase coupled assay
# [2] = test system: Mycobacterium tuberculosis; assay: Antimycobacterial activity against Mycobacterium tuberculosis H37Rv ATCC 27294 after 5 days by microdilution method; type: functional; conditions: H37Rv ATCC 27294, 120 h
# Cytochrome P450 2C9 = Cytochrome P450 2C9 (Homo sapiens, UniProt P11712); assay: Inhibition of human recombinant CYP2C9 by fluorescence assay; type: ADME
# Cytochrome P450 1A2 = target: T1, Cytochrome P450 1A2 (Homo sapiens, UniProt P05177); assay: Inhibition of human recombinant CYP1A2 by fluorescence assay; type: ADME
# T1 sequence (P05177 whole entry): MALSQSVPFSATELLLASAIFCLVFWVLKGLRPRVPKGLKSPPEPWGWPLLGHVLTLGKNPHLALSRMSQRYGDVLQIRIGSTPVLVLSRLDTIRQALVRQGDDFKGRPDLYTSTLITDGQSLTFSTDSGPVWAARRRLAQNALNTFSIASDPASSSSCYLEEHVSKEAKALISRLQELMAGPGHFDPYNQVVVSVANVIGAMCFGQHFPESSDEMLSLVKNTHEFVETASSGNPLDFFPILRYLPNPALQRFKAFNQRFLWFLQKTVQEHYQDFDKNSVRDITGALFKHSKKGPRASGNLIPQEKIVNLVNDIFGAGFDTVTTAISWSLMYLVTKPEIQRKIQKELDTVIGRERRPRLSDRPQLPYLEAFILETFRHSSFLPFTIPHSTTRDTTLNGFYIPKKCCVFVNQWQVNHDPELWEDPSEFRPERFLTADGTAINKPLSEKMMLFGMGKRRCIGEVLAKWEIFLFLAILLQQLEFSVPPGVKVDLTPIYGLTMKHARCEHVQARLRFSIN
# Cytochrome P450 2D6 = Cytochrome P450 2D6 (Homo sapiens, UniProt P10635); assay: Inhibition of human recombinant CYP2D6 by fluorescence assay; type: ADME
# Cytochrome P450 2C19 = Cytochrome P450 2C19 (Homo sapiens, UniProt P33261); assay: Inhibition of human recombinant CYP2C19 by fluorescence assay; type: ADME
# Cytochrome P450 3A4 = Cytochrome P450 3A4 (Homo sapiens, UniProt P08684); assay: Inhibition of human recombinant CYP3A4 by fluorescence assay; type: ADME
# A549 = assay: Cytotoxicity against human A549 cells after 72 hrs by fluorescence assay; type: cell-based; conditions: A549, 72 h
# [3] = Aqueous solubility of the compound; type: physicochemical; conditions: buffer
# [4] = Fraction unbound in mouse plasma protein; type: ADME, cell-free
# [5] = Intrinsic clearance in mouse liver microsomes; type: ADME; conditions: read-out: CLH
# Salmonella typhimurium [6] = assay: Genotoxicity in Salmonella typhimurium TA100 at 50 ug/plate by Ames test in absence of S9 fraction; type: toxicity, organism-based; conditions: salmonella enterica subsp. enterica serovar typhimurium
# Salmonella typhimurium [7] = assay: Genotoxicity in Salmonella typhimurium TA98 at 50 ug/plate by Ames test in presence of S9 fraction; type: toxicity, organism-based; conditions: salmonella enterica subsp. enterica serovar typhimurium
# Salmonella typhimurium [8] = assay: Genotoxicity in Salmonella typhimurium TA100 at 16 ug/plate by Ames test in presence of S9 fraction; type: toxicity, organism-based; conditions: salmonella enterica subsp. enterica serovar typhimurium
# Salmonella typhimurium [9] = assay: Genotoxicity in Salmonella typhimurium TA98 at 160 ug/plate by Ames test in absence of S9 fraction; type: toxicity, organism-based; conditions: salmonella enterica subsp. enterica serovar typhimurium
# [10] = test system: Mycobacterium tuberculosis; assay: Antimycobacterial activity against Mycobacterium tuberculosis H37Rv ATCC 27294 after 2 to 3 weeks by turbidity assay; type: functional
# Salmonella typhimurium [11] = assay: Genotoxicity in Salmonella typhimurium TA98 at 5000 ug/plate by Ames test in absence of S9 fraction; type: toxicity, organism-based; conditions: salmonella enterica subsp. enterica serovar typhimurium
# Salmonella typhimurium [12] = assay: Genotoxicity in Salmonella typhimurium TA100 at 5000 ug/plate by Ames test in absence of S9 fraction; type: toxicity, organism-based; conditions: salmonella enterica subsp. enterica serovar typhimurium
# Salmonella typhimurium [13] = assay: Genotoxicity in Salmonella typhimurium TA98 at 5000 ug/plate by Ames test in presence of S9 fraction; type: toxicity, organism-based; conditions: salmonella enterica subsp. enterica serovar typhimurium
# Salmonella typhimurium [14] = assay: Genotoxicity in Salmonella typhimurium TA100 at 5000 ug/plate by Ames test in presence of S9 fraction; type: toxicity, organism-based; conditions: salmonella enterica subsp. enterica serovar typhimurium
# [15] = test system: Mycobacterium tuberculosis; assay: Antimycobacterial activity against Mycobacterium tuberculosis H37Rv ATCC 27294 infected in BMDM assessed as log reduction CFU after 7 days by killing kinetic assay; type: functional
# [16] = test system: Mycobacterium tuberculosis; assay: Antimycobacterial activity against Mycobacterium tuberculosis H37Rv ATCC 27294 infected in human THP1 cells assessed as log reduction CFU after 7 days by killing kinetic assay; type: functional, THP-1
# Salmonella typhimurium [17] = assay: Genotoxicity in Salmonella typhimurium TA98 at 500 ug/plate by Ames test in absence of S9 fraction; type: toxicity, organism-based; conditions: salmonella enterica subsp. enterica serovar typhimurium
# Salmonella typhimurium [18] = assay: Genotoxicity in Salmonella typhimurium TA98 at 500 ug/plate by Ames test in presence of S9 fraction; type: toxicity, organism-based; conditions: salmonella enterica subsp. enterica serovar typhimurium
# [19] = test system: Mycobacterium tuberculosis; assay: Antimycobacterial activity against Mycobacterium tuberculosis H37Rv ATCC 27294 assessed as log reduction CFU after 7 days by killing kinetic assay; type: functional
# [20] = Clearance in iv dosed mouse; type: ADME, organism-based; conditions: in vivo
# [21] = AUC100 in po dosed mouse; type: ADME, organism-based; conditions: in vivo
# [22] = Volume of distribution at steady state in mouse; type: ADME, organism-based; conditions: in vivo, read-out: Vdss
# Sequence of Cytochrome P450 2C19 (P33261 whole entry): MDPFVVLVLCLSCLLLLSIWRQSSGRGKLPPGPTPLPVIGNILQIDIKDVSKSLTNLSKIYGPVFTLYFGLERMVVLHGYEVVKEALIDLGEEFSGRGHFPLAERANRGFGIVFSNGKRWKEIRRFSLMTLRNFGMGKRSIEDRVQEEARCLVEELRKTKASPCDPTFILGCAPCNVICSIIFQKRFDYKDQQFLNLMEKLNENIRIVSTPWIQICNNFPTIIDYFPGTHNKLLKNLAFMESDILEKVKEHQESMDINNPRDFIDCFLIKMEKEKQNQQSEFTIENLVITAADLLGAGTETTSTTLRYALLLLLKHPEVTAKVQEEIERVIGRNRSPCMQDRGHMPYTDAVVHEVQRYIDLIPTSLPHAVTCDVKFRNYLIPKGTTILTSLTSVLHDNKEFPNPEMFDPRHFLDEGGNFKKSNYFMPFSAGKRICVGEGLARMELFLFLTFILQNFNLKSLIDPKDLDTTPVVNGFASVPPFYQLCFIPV
# Sequence of Cytochrome P450 2D6 (P10635 whole entry): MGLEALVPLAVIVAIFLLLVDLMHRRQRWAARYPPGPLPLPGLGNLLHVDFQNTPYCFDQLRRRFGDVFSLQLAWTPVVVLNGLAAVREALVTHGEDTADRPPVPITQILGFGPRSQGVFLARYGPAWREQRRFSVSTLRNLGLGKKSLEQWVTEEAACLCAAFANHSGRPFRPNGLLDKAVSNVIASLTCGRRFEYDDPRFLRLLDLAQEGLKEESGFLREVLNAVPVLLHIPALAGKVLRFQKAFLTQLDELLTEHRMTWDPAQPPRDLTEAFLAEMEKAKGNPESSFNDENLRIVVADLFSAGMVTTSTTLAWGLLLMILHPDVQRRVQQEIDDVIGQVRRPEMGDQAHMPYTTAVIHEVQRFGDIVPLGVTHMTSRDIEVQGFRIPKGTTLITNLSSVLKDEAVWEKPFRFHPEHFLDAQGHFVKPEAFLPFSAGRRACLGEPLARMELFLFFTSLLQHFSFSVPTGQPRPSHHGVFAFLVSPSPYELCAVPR
# Sequence of Cytochrome P450 3A4 (P08684 whole entry): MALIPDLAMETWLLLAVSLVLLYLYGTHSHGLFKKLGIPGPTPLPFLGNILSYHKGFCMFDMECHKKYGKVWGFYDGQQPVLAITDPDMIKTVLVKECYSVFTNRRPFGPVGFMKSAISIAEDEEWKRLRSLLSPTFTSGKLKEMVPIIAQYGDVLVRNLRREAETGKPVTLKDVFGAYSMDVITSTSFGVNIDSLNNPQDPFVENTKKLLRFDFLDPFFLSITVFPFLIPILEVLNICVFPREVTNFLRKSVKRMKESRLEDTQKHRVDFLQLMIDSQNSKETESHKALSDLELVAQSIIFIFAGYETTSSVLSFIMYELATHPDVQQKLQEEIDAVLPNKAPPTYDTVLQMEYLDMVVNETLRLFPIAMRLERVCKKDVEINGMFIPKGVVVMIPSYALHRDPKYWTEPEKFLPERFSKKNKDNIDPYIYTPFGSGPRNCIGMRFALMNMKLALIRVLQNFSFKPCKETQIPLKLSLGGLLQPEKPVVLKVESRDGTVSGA
# Sequence of Cytochrome P450 2C9 (P11712 whole entry): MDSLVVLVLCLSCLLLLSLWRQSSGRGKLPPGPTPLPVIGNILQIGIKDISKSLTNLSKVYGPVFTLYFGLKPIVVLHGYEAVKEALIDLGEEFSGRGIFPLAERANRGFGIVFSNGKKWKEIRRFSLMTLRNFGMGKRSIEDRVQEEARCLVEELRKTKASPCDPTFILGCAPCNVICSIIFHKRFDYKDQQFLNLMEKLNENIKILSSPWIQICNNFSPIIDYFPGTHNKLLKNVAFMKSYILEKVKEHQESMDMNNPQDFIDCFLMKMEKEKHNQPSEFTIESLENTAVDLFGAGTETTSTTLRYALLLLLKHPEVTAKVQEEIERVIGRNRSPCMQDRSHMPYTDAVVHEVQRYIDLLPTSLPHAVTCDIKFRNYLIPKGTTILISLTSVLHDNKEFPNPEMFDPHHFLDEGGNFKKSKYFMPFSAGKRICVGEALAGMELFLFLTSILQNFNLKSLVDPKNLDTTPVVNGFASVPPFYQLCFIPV
smiles,measurement,setting,value
O=C(N[C@@H](CO)C(=O)N1CCCC1)c1nc2cc(C(F)(F)F)cc([N+](=O)[O-])c2s1,IC50,[1],349 nM
same,MIC,[2],0.35 µg/mL
O=C(c1sc2c([N+](=O)[O-])cc(C(F)(F)F)cc2[n+]1[O-])N1CCCCC1,IC50,Cytochrome P450 2C9; read-out: IC50,26.6 µM
same,IC50,Cytochrome P450 1A2,14.7 µM
same,IC50,[1],95 nM
same,MIC,[2],0.03 µg/mL
same,IC50,Cytochrome P450 2D6,1.21 µM
same,IC50,Cytochrome P450 2C19,17.7 µM
same,IC50,Cytochrome P450 3A4,3.91 µM
same,IC50,A549,24 µM
same,solubility,[3],84.7 µM
same,fraction unbound,[4],0.103
same,microsomal CLint,[5],102 µL/min/mg
same,Activity,Salmonella typhimurium [6],Toxic
same,Activity,Salmonella typhimurium [7],Toxic
same,Activity,Salmonella typhimurium [8],Toxic
same,Activity,Salmonella typhimurium [9],Toxic
Cc1c(C(F)(F)F)cc2nc(C(=O)N3CCCCC3)sc2c1[N+](=O)[O-],IC50,[1],2200 nM
same,MIC,[2],0.25 µg/mL
same,MIC,[10],0.5 µg/mL
same,Activity,Salmonella typhimurium [11],Non-toxic
same,Activity,Salmonella typhimurium [12],Non-toxic
same,Activity,Salmonella typhimurium [13],Non-toxic
same,Activity,Salmonella typhimurium [14],Non-toxic
Cc1c(C(F)(F)F)cc2nc(C3=NCCO3)sc2c1[N+](=O)[O-],IC50,[1],3900 nM
same,MIC,[2],8 µg/mL
same,Activity,Salmonella typhimurium [11],Non-toxic
same,Activity,Salmonella typhimurium [12],Non-toxic
same,Activity,Salmonella typhimurium [13],Non-toxic
same,Activity,Salmonella typhimurium [14],Non-toxic
Cc1c(C(F)(F)F)cc2nc(C(=O)N[C@@H](CCO)C(=O)N3CCCCC3)sc2c1[N+](=O)[O-],IC50,[1],1200 nM
same,MIC,[2],0.7 µg/mL
same,Activity,[15],1 log10CFU/ml
same,Activity,[16],1 log10CFU/ml
O=C(c1nc2cc(C(F)(F)F)cc([N+](=O)[O-])c2s1)N1CCCCC1,IC50,[1],213 nM
same,MIC,[2],0.7 µg/mL
same,Activity,Salmonella typhimurium [6],Toxic
same,Activity,Salmonella typhimurium [8],Toxic
same,Activity,Salmonella typhimurium [17],Toxic
same,Activity,Salmonella typhimurium [18],Toxic
O=C(O)c1cc(C(F)(F)F)cc2nc(C(=O)N3CCCCC3)sc12,IC50,[1],> 100000 nM
same,MIC,[2],> 32 µg/mL
CNC(=O)c1cc([N+](=O)[O-])c2sc(C(=O)N3CCCCC3)nc2c1,IC50,[1],53000 nM
same,MIC,[2],32 µg/mL
COCCN1CCN(C(=O)c2nc3cc(C(F)(F)F)cc([N+](=O)[O-])c3s2)CC1,IC50,Cytochrome P450 2C9,Not Active
same,IC50,Cytochrome P450 1A2,17.9 µM
same,IC50,[1],247 nM
same,MIC,[2],0.21 µg/mL
same,IC50,Cytochrome P450 2D6,5.24 µM
same,IC50,Cytochrome P450 2C19,55.9 µM
same,IC50,Cytochrome P450 3A4,19.5 µM
same,IC50,A549,90 µM
same,solubility,[3],331 µM
same,fraction unbound,[4],0.061
same,microsomal CLint,[5],25 µL/min/mg
same,Activity,Salmonella typhimurium [6],Toxic
same,Activity,Salmonella typhimurium [8],Toxic
same,Activity,Salmonella typhimurium [17],Toxic
same,Activity,Salmonella typhimurium [18],Toxic
Cc1c(C(F)(F)F)cc2nc(C(=O)NCc3ccccn3)sc2c1[N+](=O)[O-],IC50,[1],1200 nM
same,MIC,[2],0.3 µg/mL
O=C(c1nc2cc(C(F)(F)F)cc([N+](=O)[O-])c2s1)N1CCOCC1,IC50,[1],300 nM
same,MIC,[2],0.1 µg/mL
O=C(c1nc2cc(C(F)(F)F)cc(-[n+]3cc([O-])on3)c2s1)N1CCCCC1,IC50,[1],28200 nM
same,MIC,[2],32 µg/mL
O=C(NCc1ccccn1)c1nc2cc(C(F)(F)F)cc([N+](=O)[O-])c2s1,IC50,[1],452 nM
same,MIC,[2],0.6 µg/mL
same,MIC,[10],0.12 µg/mL
same,Activity,[19],2.5 log10CFU/ml
same,Activity,[15],1 log10CFU/ml
same,Activity,[16],1 log10CFU/ml
O=C(c1nc2cc(C(F)(F)F)cc(B(O)O)c2s1)N1CCCCC1,MIC,[2],> 32 µg/mL
N#Cc1cc([N+](=O)[O-])c2sc(C(=O)N3CCCCC3)nc2c1,IC50,[1],1800 nM
same,MIC,[2],1 µg/mL
COCCN1CCN(C(=O)c2nc3cc(C(F)(F)F)c(C)c([N+](=O)[O-])c3s2)CC1,IC50,Cytochrome P450 2C9,Not Active
same,IC50,Cytochrome P450 1A2,9.56 µM
same,IC50,[1],1700 nM
same,MIC,[2],2 µg/mL
same,IC50,Cytochrome P450 2D6,58.6 µM
same,IC50,Cytochrome P450 2C19,64.9 µM
same,IC50,Cytochrome P450 3A4,95 µM
same,IC50,A549,100 µM
same,solubility,[3],73 µM
same,fraction unbound,[4],0.043
same,microsomal CLint,[5],< 4 µL/min/mg
same,clearance,[20],146 mL/min/kg
same,AUC,[21],570 ng·h/mL
same,Vd,[22],24.5 L/kg
same,MIC,[10],2 µg/mL
same,Activity,Salmonella typhimurium [11],Non-toxic
same,Activity,Salmonella typhimurium [12],Non-toxic
same,Activity,Salmonella typhimurium [13],Non-toxic
same,Activity,Salmonella typhimurium [14],Non-toxic
C[C@H](NC(=O)c1sc2c([N+](=O)[O-])cc(C(F)(F)F)cc2[n+]1[O-])C(=O)C1CCCC1,IC50,[1],60 nM
same,MIC,[2],0.02 µg/mL
same,Activity,[15],1 log10CFU/ml
same,Activity,[16],1 log10CFU/ml
O=C(NCc1ccccn1)c1nc2cc(C(F)(F)F)ccc2s1,IC50,[1],> 100000 nM
same,MIC,[2],> 32 µg/mL
O=C(NCc1ccccn1)c1sc2c([N+](=O)[O-])cc(C(F)(F)F)cc2[n+]1[O-],IC50,[1],26 nM
same,MIC,[2],0.02 µg/mL
same,MIC,[10],0.01 µg/mL
same,Activity,[19],2.5 log10CFU/ml
Cc1c(C(F)(F)F)cc2nc(C(=O)N[C@@H](CO)C(=O)N3CCCC3)sc2c1[N+](=O)[O-],IC50,[1],1200 nM
same,MIC,[2],1 µg/mL
O=[N+]([O-])c1cc(C(F)(F)F)cc2nc(CN3CCOCC3)sc12,IC50,[1],5200 nM
same,MIC,[2],> 32 µg/mL
O=[N+]([O-])c1cc(C(F)(F)F)cc2c1sc(C1=NCCO1)[n+]2[O-],IC50,[1],276 nM
same,MIC,[2],0.4 µg/mL
same,Activity,Salmonella typhimurium [6],Toxic
same,Activity,Salmonella typhimurium [7],Toxic
same,Activity,Salmonella typhimurium [8],Toxic
same,Activity,Salmonella typhimurium [9],Toxic
N#Cc1cc(C(F)(F)F)cc2nc(C(=O)N3CCCCC3)sc12,MIC,[2],> 32 µg/mL
